Reference: ChEMBL document CHEMBL1155890, “Synthesis of scyllo-inositol derivatives and their effects on amyloid beta peptide aggregation” (Bioorg Med Chem, 2008)
Activity calls are given as the source filed them. No cut-off for these calls is given here.

Test: Effect on amyloid beta 42 aggregation assessed as inhibition of fiber formation at 5 mM
In the case of `O[C@@H]1[C@@H](O)[C@H](O)C[C@H](O)[C@H]1O`, the Activity is reported as “inactive”. For `O[C@@H]1C[C@H](O)[C@@H](O)C[C@H]1O`, the Activity was “inactive”. For `O[C@@H]1[C@@H](O)[C@H](Cl)[C@@H](O)[C@H](O)[C@H]1Cl`, the Activity was “inactive”. With `O[C@@H]1[C@@H](O)[C@H](O)[C@@H](Cl)[C@H](O)[C@H]1O` the Activity was “inactive”. For `O[C@@H]1[C@@H](O)[C@H](F)[C@@H](O)[C@H](O)[C@H]1F`, the Activity was “inactive”. In the case of `CO[C@H]1[C@H](O)[C@@H](O)[C@H](O)[C@@H](O)[C@@H]1O`, the Activity is reported as “inactive”.

Test: Effect on amyloid beta 42 aggregation assessed as inhibition of fiber formation at 3 mM
With `O[C@H]1[C@H](O)[C@@H](O)[C@H](O)[C@@H](O)[C@@H]1O` the Activity was “Active”.
